Assay results as given in article PMC5069460, “A novel gene cluster allows preferential utilization of fucosylated milk oligosaccharides in Bifidobacterium longum subsp. longum SC596” (Scientific Reports, 2016).

These compounds were tested against T1, BLNG_00936 (SBP) (Bifidobacterium longum, UniProt Q8G848) (assay: glycan array (CFG Mammalian Glycan Array v5.[…]), anti-GST Alexa […]). Settings: glycan immobilised via spacer; protein 200 ug/ml; pH 7.4, 150 mM NaCl, 2 mM CaCl2, 2 mM MgCl2.
T1 construct: gene fruE; tag kept for detection
T1 sequence (Q8G848 23-327 limits assumed): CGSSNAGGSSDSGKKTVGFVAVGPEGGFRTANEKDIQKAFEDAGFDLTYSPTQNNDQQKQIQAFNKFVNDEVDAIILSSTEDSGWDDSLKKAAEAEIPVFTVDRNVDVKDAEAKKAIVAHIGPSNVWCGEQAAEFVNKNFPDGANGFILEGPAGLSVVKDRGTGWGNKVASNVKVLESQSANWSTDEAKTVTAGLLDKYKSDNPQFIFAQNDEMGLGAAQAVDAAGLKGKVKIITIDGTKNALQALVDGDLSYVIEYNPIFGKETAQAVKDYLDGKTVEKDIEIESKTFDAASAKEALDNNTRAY
Format: binding

| Compound | Average RFU^b |
| --- | --- |
| CC(=O)N[C@H]1[C@H](OCCCN)O[C@H](CO)[C@@H](O[C@@H]2O[C@H](CO)[C@H](O)[C@H](O[C@@H]3O[C@H](CO)[C@H](O)[C@H](O)[C@H]3O)[C@H]2O)[C@@H]1O [Galβ1-3Galβ1-4GlcNAcβ-Sp8] | 126 RFU |

The compounds below were run against T2, BLNG_00160 (SBP of LNB/GNB cluster) (Bifidobacterium longum, UniProt Q8G3W5) in the same assay as above. Settings: glycan immobilised via spacer; protein 200 ug/ml; pH 7.4, 150 mM NaCl, 2 mM CaCl2, 2 mM MgCl2.
T2 construct: gene BL1638; tag kept for detection
T2 sequence (Q8G3W5 24-438): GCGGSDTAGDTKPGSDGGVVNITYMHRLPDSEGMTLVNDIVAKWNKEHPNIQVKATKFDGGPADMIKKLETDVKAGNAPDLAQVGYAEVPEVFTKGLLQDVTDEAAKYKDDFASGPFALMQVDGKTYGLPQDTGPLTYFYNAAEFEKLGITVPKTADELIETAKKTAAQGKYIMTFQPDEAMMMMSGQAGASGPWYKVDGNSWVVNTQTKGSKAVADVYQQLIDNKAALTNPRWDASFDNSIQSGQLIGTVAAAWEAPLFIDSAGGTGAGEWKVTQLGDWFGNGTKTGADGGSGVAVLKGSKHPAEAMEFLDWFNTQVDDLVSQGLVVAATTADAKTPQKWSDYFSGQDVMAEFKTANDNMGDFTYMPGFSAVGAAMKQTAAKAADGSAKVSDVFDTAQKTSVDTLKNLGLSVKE
Format: binding

| Compound | Average RFU^b |
| --- | --- |
| CC(=O)N[C@H]1[C@H](OCCCN)O[C@H](COS(=O)(=O)O)[C@@H](O)[C@@H]1O[C@@H]1O[C@H](CO)[C@H](O)[C@H](O)[C@H]1O [Galβ1-3(6S)GlcNAcβ-Sp8] | 2646 RFU |
| CC(=O)N[C@H]1[C@H](O[C@@H]2[C@H](O)[C@@H](O)[C@H](O[C@H]3[C@H](O)[C@@H](O)[C@H](OCCCN)O[C@@H]3CO)O[C@@H]2CO)O[C@H](CO)[C@H](O)[C@@H]1O[C@@H]1O[C@H](CO)[C@H](O)[C@H](O)[C@H]1O [Galβ1-3GalNAcβ1-4Galβ1-4Glcβ-Sp8] | 3430 RFU |
| CC(=O)N[C@H]1[C@H](OCCCN)O[C@H](CO)[C@@H](O[C@@H]2O[C@H](CO)[C@H](O)[C@H](O[C@@H]3O[C@H](CO)[C@H](O)[C@H](O)[C@H]3O)[C@H]2O)[C@@H]1O [Galβ1-3Galβ1-4GlcNAcβ-Sp8] | 4654 RFU |
| CC(=O)N[C@H]1[C@H](OCCN)O[C@H](CO)[C@@H](O[C@@H]2O[C@H](CO)[C@H](O)[C@H](O[C@@H]3O[C@H](CO)[C@@H](O)[C@H](O[C@@H]4O[C@H](CO)[C@H](O)[C@H](O)[C@H]4O)[C@H]3NC(C)=O)[C@H]2O)[C@@H]1O [Galβ1-3GlcNAcβ1-3Galβ1-4GlcNAcβ-Sp0] | 2029 RFU |
| CC(=O)N[C@H]1[C@H](OCCN)O[C@H](CO)[C@@H](O)[C@@H]1O[C@@H]1O[C@H](CO)[C@H](O)[C@H](O)[C@H]1O [Galβ1-3GlcNAcβ-Sp0] | 969 RFU |
| Galβ1-3GalNAcβ1-3Gal-Sp21 | 2528 RFU |
| Galβ1-3GlcNAcβ1-3Galβ1-4Glcβ-Sp10 | 1784 RFU |

These compounds were tested against T3, BLNG_01257 (SBP of FHMO cluster) (Bifidobacterium longum, UniProt A0A0M3T5K2) in the same assay as above. Settings: glycan immobilised via spacer; protein 200 ug/ml; pH 7.4, 150 mM NaCl, 2 mM CaCl2, 2 mM MgCl2.
T3 construct: tag kept for detection; homolog of Blon_0343 and Blon_2202
T3 sequence (A0A0M3T5K2 23-460 limits assumed): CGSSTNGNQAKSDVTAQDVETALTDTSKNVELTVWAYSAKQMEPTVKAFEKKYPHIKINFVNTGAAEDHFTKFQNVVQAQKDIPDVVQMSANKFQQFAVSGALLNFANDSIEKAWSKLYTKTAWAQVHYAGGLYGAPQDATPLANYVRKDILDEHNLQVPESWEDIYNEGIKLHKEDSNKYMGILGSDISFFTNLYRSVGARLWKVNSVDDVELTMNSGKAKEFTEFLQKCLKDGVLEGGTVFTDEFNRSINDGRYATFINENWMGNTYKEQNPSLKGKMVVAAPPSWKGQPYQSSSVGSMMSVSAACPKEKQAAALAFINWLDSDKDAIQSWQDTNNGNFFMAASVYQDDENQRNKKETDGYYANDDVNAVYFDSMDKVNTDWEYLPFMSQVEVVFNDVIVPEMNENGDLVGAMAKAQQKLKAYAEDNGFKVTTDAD
Format: binding

| Compound | Average RFU^b |
| --- | --- |
| C[C@@H]1O[C@@H](O[C@H]2C(O)O[C@H](CO)[C@H](O)[C@@H]2O)[C@@H](O)[C@H](O)[C@@H]1O (stereo partly shown) [Fuca1-2Galβ-Sp8] | 2161 RFU |
| Fuca1-2Galβ1-4Glcβ-Sp0 | 360 RFU |
